# Experimental data taken from patent publication US20110143948A1, “MOLECULAR SIGNATURES AND BIOMARKERS ASSOCIATED WITH MELANOMA AND METHODS OF USE THEREOF” (priority 2008, published 2011).
# System: ncRNAs (SEQ ID NO 28-89)
# Test: ncRNA arrays of melanocytes, keratinocytes, normal skin, melanoma cell lines and patient samples
# Set-up: species or system human
# Details: for ncRNA array expression, patient 2: melanoma patient 2 sample compared to normal skin; for ncRNA array expression, patient 3: melanoma patient 3 sample compared to normal skin; for ncRNA array expression, patient 4: melanoma patient 4 sample compared to normal skin; for ncRNA array expression, patient 5: melanoma patient 5 sample compared to normal skin; for ncRNA array expression, patient 6: melanoma patient 6 sample compared to normal skin; for ncRNA array expression, patient 7: melanoma patient 7 sample compared to normal skin; for ncRNA array expression, patient 8: melanoma patient 8 sample compared to normal skin; for ncRNA array expression, patient 9: melanoma patient 9 sample compared to normal skin; for ncRNA array expression, patient 10: melanoma patient 10 sample compared to normal skin; for ncRNA array expression, patient 19: melanoma patient 19 sample compared to normal skin; for ncRNA array expression, patient 20: melanoma patient 20 sample compared to normal skin; for ncRNA array expression, patient 21: melanoma patient 21 sample compared to normal skin; for ncRNA array expression, patient 22: melanoma patient 22 sample compared to normal skin; for ncRNA array expression, patient 23: melanoma patient 23 sample compared to normal skin; for ncRNA array expression, patient 24: melanoma patient 24 sample compared to normal skin; for ncRNA array expression, patient 25: melanoma patient 25 sample compared to normal skin; for ncRNA array expression, patient 26: melanoma patient 26 sample compared to normal skin; for ncRNA array expression, patient 27: melanoma patient 27 sample compared to normal skin; for ncRNA array expression, patient 28: melanoma patient 28 sample compared to normal skin; for ncRNA array expression, patient 29: melanoma patient 29 sample compared to normal skin; for ncRNA array expression, patient 30: melanoma patient 30 sample compared to normal skin
# How it was run: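 Differential ncRNA expression was defined against melanocytes or normal skin after subtracting keratinocyte-specific signals, with confirmation by qRT-PCR and Northern blot. Samples were melanoma cell lines, patient tumours, melanocytes, keratinocytes and normal skin, hybridised to a >10,000-probe (>200 nt) ncRNA array that also carries RefSeq mRNA probes.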
Substance,"ncRNA array expression, patient 2","ncRNA array expression, patient 3","ncRNA array expression, patient 4","ncRNA array expression, patient 5","ncRNA array expression, patient 6","ncRNA array expression, patient 7","ncRNA array expression, patient 8","ncRNA array expression, patient 9","ncRNA array expression, patient 10","ncRNA array expression, patient 19","ncRNA array expression, patient 20","ncRNA array expression, patient 21","ncRNA array expression, patient 22","ncRNA array expression, patient 23","ncRNA array expression, patient 24","ncRNA array expression, patient 25","ncRNA array expression, patient 26","ncRNA array expression, patient 27","ncRNA array expression, patient 28","ncRNA array expression, patient 29",further results
"SEQ ID NO 79 (GTGTGTACTGATGTCAAAGACCAAATGGATGCCCCTGTGGCCAACAGTACCTTGTTAAAC; listed as DNA, chemistry not given here; listed as Homo sapiens)",0.5938,1.324,1.428,1.43,1.201,1.729,1.728,1.129,0.1808,1.52,1.494,1.271,1.165,1.445,2.943,1.206,0.7039,0.9237,0.5852,0.6174,"ncRNA array expression, patient 30: 0.5148"
"SEQ ID NO 80 (CACACAGCCCAGTCTGCCTGTGATGGTAATATAAATCAAACCAGGGACCCAAGAGCCCAG; listed as DNA, chemistry not given here; listed as Homo sapiens)",−1.594,−1.487,−1.4489,−1.208,−0.982,−1.213,−1.338,−1.383,−1.815,−1.234,−2.056,−1.5287,−0.7073,−0.1143,−1.175,−1.992,−1.983,−1.665,−1.4589,−1.489,"ncRNA array expression, patient 30: 0.1296"
"SEQ ID NO 81 (CTAGGGGCGGAGTTTCTCGTAAGGGGCAAGGCCAAGGCATCTTGTATTGGGGCTGACAGG; listed as DNA, chemistry not given here; listed as Homo sapiens)",−2.704,−2.664,−2.74,−2.515,−1.776,−2.533,−2.25,−2.579,−3.027,−2.079,−2.527,−2.568,−1.3874,−1.288,−2.451,−2.889,−3.081,−2.77,−2.666,−2.727,"ncRNA array expression, patient 30: 2.229"
"SEQ ID NO 82 (GAAGTCAGAAACTAAAGTTCCCTTCTAAGACAAAATCCTGCTTTGGAGAAAAAAAAAAAT; listed as DNA, chemistry not given here; listed as Homo sapiens)",−3.153,−2.943,−3.11,−2.733,−1.179,−3.133,−2.955,−3.056,−3.4499,−3.347,−3.111,−3.1409,−2.791,−3.009,−3.02,−3.428,−3.448,−3.18,−3.348,−3.301,"ncRNA array expression, patient 30: −2.485"
"SEQ ID NO 83 (TCAGTTTGATGATTGGGCTAGGGAATGAAGCTTTGCCACTTAGGAGATAAACCCCATAAC; listed as DNA, chemistry not given here; listed as Homo sapiens)",−1.488,−1.164,−1.691,−1.156,−0.6047,−0.9496,−0.9534,−1.016,−1.381,−1.6448,−1.228,−1.45,−1.116,−1.855,−1.066,−1.422,−1.405,−1.43,−1.28,−1.1118,"ncRNA array expression, patient 30: −1.73"
"SEQ ID NO 84 (TTATTAAAAGGACTGAGGATCATGTGTGTTGGTGTGTCCCGGAGTCTGCTCTAAGGTAAA; listed as DNA, chemistry not given here; listed as Homo sapiens)",1.997,1.789,1.046,0.9959,0.3741,2.005,1.104,1.55,0.2561,1.044,1.668,1.56,2.01,2.078,1.532,1.329,1.373,1.88,1.062,1.558,"ncRNA array expression, patient 30: 1.105"
"SEQ ID NO 85 (TGAGGGGAGAGGGGATGGGAAACATTAGGGCTGGGTTCATGTAAAGGGACCAGCATTGTG; listed as DNA, chemistry not given here; listed as Homo sapiens)",−3.042,−2.236,−3.353,−3.144,−1.878,−3.331,−3.241,−3.15,−2.88,−2.497,−3.4136,−3.4,−1.235,−0.784,−3.14,−3.2,−3.139,−3.328,−3.261,−3.3212,"ncRNA array expression, patient 30: 0.6346"
"SEQ ID NO 86 (AAAATTATTTTATCTTAAGTTTCCATTTAGTTGATTAAAAATAGGGTTATGAATGTTAAA; listed as DNA, chemistry not given here; listed as Homo sapiens)",2.021,1.628,5.076,−0.09781,−0.05485,−0.1079,0.751,0.02401,1.097,1.409,0.8906,1.056,−0.01773,−0.00853,2.72,3.621,3.088,5.119,−0.07222,−0.07156,"ncRNA array expression, patient 30: 1.029"
